Results published in patent publication US20050260555A1, “Chemosensitivity measurement using caspase activity” (Evotec Analytical Systems GmbH, priority 1999, published 2005).
*1 amine or outer side, *2 acyl side, *3 side chain or, on linkers, in order; H or OH if unused. Where a SMILES comes first, the peptide text is derived from it. Bridges are numbered along the chain shown (N, C = ends). Roman numbers before positions name the chains, in order. [ ]: non-standard residue; d: D form. Actinocin(9to1) = Cc1c2oc3c(C)ccc(C(=O)[*:1])c3nc-2c(C(=O)[*:2])c(N)c1=O; NMeV = CN[C@H](C(=O)O)C(C)C; Sar = CNCC(=O)O

Key:
Type in all cases: cell-based
HL60 cells = assay: Chemosensitivity of HL60 cells, accumulated caspase activity; details: promyeloic HL60 cells
Description: (§1) This object is achieved by a method for determining the chemosensitivity of cells towards at least one substance by measuring the apoptosis induced by said at least one substance, wherein the apoptosis is determined from the accumulated caspase activity of a sample comprising cells and a medium by adding said at least one substance to the sample followed by incubation, and measuring the accumulated caspase activity in the sample upon disruption of the cells without previously separating off the cells. In particular, the method according to the invention permits the use of substrates which are hardly cell-permeating or not cell-permeating at all.
It is essential that the accumulated caspase activity is measured. In this approach, cells, e.g., tumor cells of a patient, are incubated with at least one substance (e.g., cytostatic agent) for an extended period of time so that all effective pharmaceuticals, even the slowly acting, have had enough time to induce apoptosis. Subsequently, for example, a substrate present in a lysis buffer is added, and after the cell lysis has been effected, the total caspase activity formed, i.e., the accumulated activity, of the cellular suspension is measured. […] The conventionally determined (with a washing step) caspase activity increases at the same rate as the accumulated caspase activity, but decreases when the secondary necrosis begins (see FIG. 1). Thus, the principle of measuring the accumulated caspase activity permits to detect the effect of substances on the cells by a single caspase activity measurement. This test has a low need of cells and can be performed as a routine test by laboratory or technical assistants within a short time. Due to the easy automation, the personnel expenditure for performing the test is low. Since the test can be performed on ELISA reading devices, which are available everywhere, no investment in equipment is necessary. Miniaturization is possible to further reduce the consumption of materials. It could be shown that cells can be kept in culture for some days in less than 10 μl of medium. […]
The caspase activity of 250 000 Jurkat cells in 100 μl of medium was determined after different incubation times with 1 μg/ml actinomycin D both conventionally and according to the method of accumulated caspase activity according to the invention. […] The accumulated caspase activity was determined by mixing 100 μl of the cells incubated with actinomycin D, directly in suspension, with 100 μl of 2× lysis buffer. […] At room temperature, the release of fluorescent aminocoumarin by caspase was monitored every 5 min over a period of 2 h. From the linear increase of the signal, the slope was calculated as a measure of caspase activity. […]

U937 cells = assay: Chemosensitivity of U937 cells, accumulated caspase activity; details: cell line U937, FIG. 3; for effectiveness (apoptosis induction) as concentration increases: average from three independent experiments
Description: as §1
(§2) It is essential that the accumulated caspase activity is measured. In this approach, cells, e.g., tumor cells of a patient, are incubated with at least one substance (e.g., cytostatic agent) for an extended period of time so that all effective pharmaceuticals, even the slowly acting, have had enough time to induce apoptosis. Subsequently, for example, a substrate present in a lysis buffer is added, and after the cell lysis has been effected, the total caspase activity formed, i.e., the accumulated activity, of the cellular suspension is measured. […] The conventionally determined (with a washing step) caspase activity increases at the same rate as the accumulated caspase activity, but decreases when the secondary necrosis begins (see FIG. 1). Thus, the principle of measuring the accumulated caspase activity permits to detect the effect of substances on the cells by a single caspase activity measurement. This test has a low need of cells and can be performed as a routine test by laboratory or technical assistants within a short time. Due to the easy automation, the personnel expenditure for performing the test is low. Since the test can be performed on ELISA reading devices, which are available everywhere, no investment in equipment is necessary. Miniaturization is possible to further reduce the consumption of materials. It could be shown that cells can be kept in culture for some days in less than 10 μl of medium. The reduction of the number of cells per sample compartment […] per test enables highly parallel analyses of samples with extremely few cells from patients, e.g., from fine needle biopsies. The low need of cells also permits the high throughput screening (HTS) of unknown substances for anti-tumor activity.
The caspase activity of 250 000 Jurkat cells in 100 μl of medium was determined after different incubation times with 1 μg/ml actinomycin D both conventionally and according to the method of accumulated caspase activity according to the invention. Thus, 100 μl of Jurkat cells (2.5×10^6/ml) was incubated in the presence of actinomycin D at 5% CO2 and 37° C. in RPMI medium with 10% FCS and Pen/Strep. After the incubation, the cells were centrifuged by a conventional method and washed with PBS. The pellet was resuspended in 200 μl of lysis buffer, incubated on ice for 10 min and frozen at −20° C. The accumulated caspase activity was determined by mixing 100 μl of the cells incubated with actinomycin D, directly in suspension, with 100 μl of 2× lysis buffer. The lysate was also frozen at −20° C. All lysates were simultaneously thawed, and aminocoumarin-DEVD was added. At room temperature, the release of fluorescent aminocoumarin by caspase was monitored every 5 min over a period of 2 h. From the linear increase of the signal, the slope was calculated as a measure of caspase activity. The spontaneous caspase activities of the Jurkat cells in the absence of actinomycin D, not shown in the Figure, increase with time, but remain lower than 4 min^−1.
The chemosensitivities of U937 and HL60 cells towards the cytostatic agents indicated in FIGS. 3 and 4 were tested in the stated concentration ranges.
The effect of four cytostatic agents on the cell line U937 was tested. Each data point represents the average from three independent experiments.

[1] = tested on: isolated cells from the peripheral blood (PBMNC) of healthy volunteers; assay: Chemosensitivity of PBMNC, caspase activity; details: PBMNC of healthy subjects; for concentration by which caspase activity can be induced: average from three independent experiments
Description: as §1, §2
For establishing the test for peripheral blood or bone marrow, isolated cells from the peripheral blood (PBMNC) of healthy volunteers were tested first, taking care that acute infections, as frequently encountered in the fall/winter season, could be excluded. FIGS. 5 and 6 illustrate the results of the studies with two cytostatic agents.
As compared to tested leukemia cell lines, the PBMNCs respond later to daunorubicin.

Nc1ccn([C@@H]2O[C@H](CO)[C@@H](O)[C@@H]2O)c(=O)n1 [Ara-C, cytosine arabinoside (Ara-C)] was tested, and the “maximum inducible caspase activity reached at the highest concentration measured” value (HL60 cells) was “appears not yet to have reached the maximum caspase activity”, the “maximum inducible caspase activity” value (U937 cells) was “relatively low” and the “effectiveness (apoptosis induction) as concentration increases” value (shortened to “effectiveness … as concentration increases”) (U937 cells) was “also increases”. The “plateau (unchanging maximum caspase activity)” value [1] was “not reached for any of the tested PBMNCs” and the “concentration by which caspase activity can be induced” value [1] was > 200 ng/mL.

In the case of Cc1c2oc3c(C)ccc(C(=O)N[C@@H]4C(=O)N[C@H](C(C)C)C(=O)N5CCC[C@H]5C(=O)N(C)CC(=O)N(C)[C@@H](C(C)C)C(=O)O[C@@H]4C)c3nc-2c(C(=O)N[C@@H]2C(=O)N[C@H](C(C)C)C(=O)N3CCC[C@H]3C(=O)N(C)CC(=O)N(C)[C@@H](C(C)C)C(=O)O[C@@H]2C)c(N)c1=O [actinomycin D] (I: T[dV]P[Sar][NMeV] / II: T[dV]P[Sar][NMeV]; ester I:1-I:C, II:1-II:C; linker I:N-II:N via Actinocin(9to1)), the “induced caspase activities (comparison between agents)” value (HL60 cells) is reported as “higher caspase activities than Ara-C and prednisolone”, the “maximum inducible caspase activity” value (U937 cells) is reported as “highest” and the “effectiveness … as concentration increases” value (U937 cells) is reported as “also increases”.

COc1cccc2c1C(=O)c1c(O)c3c(c(O)c1C2=O)C[C@@](O)(C(C)=O)C[C@@H]3O[C@H]1C[C@H](N)[C@H](O)[C@H](C)O1 [daunorubicin] was tested, and the “induced caspase activities (comparison between agents)” value (HL60 cells) was “higher caspase activities than Ara-C and prednisolone”, the “maximum inducible caspase activity” value (U937 cells) was “significantly higher” and the “effectiveness … as concentration increases” value (U937 cells) was “also increases”. The “plateau (unchanging maximum caspase activity)” value [1] was “not reached for the subjects NP1 and NP5 to NP8, and only roughly so for the subjects NP2 to NP4”, the “response compared to tested leukemia cell lines” value [1] was “respond later” and the “concentration by which caspase activity can be induced” value [1] was > 50 ng/mL.

In the case of C[C@]12C=CC(=O)C=C1CC[C@@H]1[C@@H]2[C@@H](O)C[C@@]2(C)[C@H]1CC[C@]2(O)C(=O)CO [prednisolone], the “concentration at maximum in caspase activity” value (HL60 cells; apoptosis signal decreases at higher concentrations) is reported as “about 700 ng/ml” and the “effectiveness … as concentration increases” value (U937 cells) is reported as “no or but a slight apoptosis induction”.
